In patent US20250339409A1, “USES OF PAN BET INHIBITORS” (VYNE THERAPEUTICS INC., priority 2021, published 2025):
“And” between values parts separate entries of the source, which are not always exact repeats. Identical values can stand only once. Marks after values point to notes of the source that are not given here.

Tested on: anti collagen antibodies induced arthritis (ACAIA)
Test: Anti collagen antibodies induced arthritis (ACAIA) in mice, intra-articular treatment: paw thickness, arthritis clinical score, body weight;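 also: mouse arthritis induced by IV anti-collagen mAb on day 0 plus IP LPS on day 4, with body weight, caliper paw thickness and 0-4 paw score tracked against a day 0 baseline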

For `C[C@@H]1C[C@H]2[C@@H]3CCC4=CC(=O)C=C[C@]4(C)[C@@]3(F)[C@@H](O)C[C@]2(C)[C@@]1(O)C(=O)CO` [dexamethasone, Dexamethasone, reference compound], the “Clinical score of treated leg (Avg.)” value (1 mg/kg IA (Group 7), Baseline) was 0.00 points, the “Paw thickness Avg. Delta untreated -treated” value (1 mg/kg IA (Group 7), Baseline) was 0.00 mm and the “Percent change of weight per day (Av)” value (1 mg/kg IA (Group 7), Baseline) was 100.00%. The “Percent change of weight per day (individual animal)” value (1 mg/kg IA (Group 7), Baseline) was 100%, the “Δ clinical score untreated -treated, Avg. Delta” value (1 mg/kg IA (Group 7), Baseline) was 0.00 points and the “Clinical score of treated leg (Avg.)” value (1 mg/kg IA (Group 7), Day 3) was 0.00 points. For the same molecule, the “Paw thickness Avg. Delta untreated -treated” value (1 mg/kg IA (Group 7), Day 3) was −0.02 mm, the “Percent change of weight per day (Av)” value (1 mg/kg IA (Group 7), Day 3) was 98.19% and the “Percent change of weight per day (individual animal)” value (1 mg/kg IA (Group 7), Day 3) was 100% and 97.54% and 95.7% and 99.48%. The “Δ clinical score untreated -treated, Avg. Delta” value (1 mg/kg IA (Group 7), Day 3) was 0.00 points, the “Clinical score of treated leg (Avg.)” value (1 mg/kg IA (Group 7), Day 4) was 0.00 points and the “Paw thickness Avg. Delta untreated -treated” value (1 mg/kg IA (Group 7), Day 4) was −0.06 mm. For the same molecule, the “Percent change of weight per day (Av)” value (1 mg/kg IA (Group 7), Day 4) was 95.21%, the “Percent change of weight per day (individual animal)” value (1 mg/kg IA (Group 7), Day 4) was 97.91% and 96.55% and 93.01% and 93.23% and the “Δ clinical score untreated -treated, Avg. Delta” value (1 mg/kg IA (Group 7), Day 4) was 0.00 points. For the same molecule, the “Clinical score of treated leg (Avg.)” value (1 mg/kg IA (Group 7), Day 5) was 0.00 points, the “Paw thickness Avg. Delta untreated -treated” value (1 mg/kg IA (Group 7), Day 5) was −0.05 mm and the “Percent change of weight per day (Av)” value (1 mg/kg IA (Group 7), Day 5) was 91.29%. The “Percent change of weight per day (individual animal)” value (1 mg/kg IA (Group 7), Day 5) was 90.58% and 91.133% and 88.71% and 100%, the “Δ clinical score untreated -treated, Avg. Delta” value (1 mg/kg IA (Group 7), Day 5) was 0.00 points and the “Clinical score of treated leg (Avg.)” value (1 mg/kg IA (Group 7), Day 6) was 0.29 points. The “Paw thickness Avg. Delta untreated -treated” value (1 mg/kg IA (Group 7), Day 6) was 0.05 mm, the “Paw thickness of treated leg (Avg.)” value (1 mg/kg IA (Group 7), Day 6) was 2.24** mm and the “Paw thickness of untreated leg (Avg.)” value (1 mg/kg IA (Group 7), Day 6) was 2.29 mm. The “Percent change of weight per day (Av)” value (1 mg/kg IA (Group 7), Day 6) was 88.66%, the “Percent change of weight per day (individual animal)” value (1 mg/kg IA (Group 7), Day 6) was 86.91% and 87.68% and 86.02% and 102.0833% and the “Δ clinical score untreated -treated, Avg. Delta” value (1 mg/kg IA (Group 7), Day 6) was 0.29 points. The “Clinical score of treated leg (Avg.)” value (1 mg/kg IA (Group 7), Day 7) was 0.86 points, the “Paw thickness Avg. Delta untreated -treated” value (1 mg/kg IA (Group 7), Day 7) was −0.01 mm and the “Paw thickness of treated leg (Avg.)” value (1 mg/kg IA (Group 7), Day 7) was 2.30** mm. The “Paw thickness of untreated leg (Avg.)” value (1 mg/kg IA (Group 7), Day 7) was 2.30 mm, the “Percent change of weight per day (Av)” value (1 mg/kg IA (Group 7), Day 7) was 88.04% and the “Percent change of weight per day (individual animal)” value (1 mg/kg IA (Group 7), Day 7) was 89.01% and 83.25% and 86.02% and 104.1667%. The “Δ clinical score untreated -treated, Avg. Delta” value (1 mg/kg IA (Group 7), Day 7) was 0.00 points, the “Clinical score of treated leg (Avg.)” value (1 mg/kg IA (Group 7), Day 8) was 1.14 points and the “Paw thickness Avg. Delta untreated -treated” value (1 mg/kg IA (Group 7), Day 8) was 0.14 mm. The “Paw thickness of treated leg (Avg.)” value (1 mg/kg IA (Group 7), Day 8) was 2.44 mm, the “Paw thickness of untreated leg (Avg.)” value (1 mg/kg IA (Group 7), Day 8) was 2.59 mm and the “Percent change of weight per day (Av)” value (1 mg/kg IA (Group 7), Day 8) was 89.48%. The “Percent change of weight per day (individual animal)” value (1 mg/kg IA (Group 7), Day 8) was 90.05% and 83.25% and 87.63% and 104.6875%, the “Δ clinical score untreated -treated, Avg. Delta” value (1 mg/kg IA (Group 7), Day 8) was 0.57 points and the “Clinical score of treated leg (Avg.)” value (1 mg/kg IA (Group 7), Day 10) was 1.14 points. For the same molecule, the “Paw thickness Avg. Delta untreated -treated” value (1 mg/kg IA (Group 7), Day 10) was 0.19 mm, the “Paw thickness of treated leg (Avg.)” value (1 mg/kg IA (Group 7), Day 10) was 2.45 mm and the “Paw thickness of untreated leg (Avg.)” value (1 mg/kg IA (Group 7), Day 10) was 2.64 mm. For the same molecule, the “Percent change of weight per day (Av)” value (1 mg/kg IA (Group 7), Day 10) was 92.65%, the “Percent change of weight per day (individual animal)” value (1 mg/kg IA (Group 7), Day 10) was 91.1% and 92.61% and 87.63% and 104.1667% and the “Δ clinical score untreated -treated, Avg. Delta” value (1 mg/kg IA (Group 7), Day 10) was 0.43 points. For the same molecule, the “Clinical score of treated leg (Avg.)” value (1 mg/kg IA (Group 7), Day 12) was 1.29 points, the “Paw thickness Avg. Delta untreated -treated” value (1 mg/kg IA (Group 7), Day 12) was 0.24 mm and the “Paw thickness of treated leg (Avg.)” value (1 mg/kg IA (Group 7), Day 12) was 2.50 mm. The “Paw thickness of untreated leg (Avg.)” value (1 mg/kg IA (Group 7), Day 12) was 2.74 mm, the “Percent change of weight per day (Av)” value (1 mg/kg IA (Group 7), Day 12) was 96.89% and the “Percent change of weight per day (individual animal)” value (1 mg/kg IA (Group 7), Day 12) was 93.19% and 99.01% and 90.32% and 110.4167% and 94.55%. The “Δ clinical score untreated -treated, Avg. Delta” value (1 mg/kg IA (Group 7), Day 12) was 0.43 points, the “Clinical score of treated leg (Avg.)” value (1 mg/kg IP (Group 6), Baseline) was 0.00 points and the “Paw thickness Avg. Delta untreated -treated” value (1 mg/kg IP (Group 6), Baseline) was 0.02 mm. The “Percent change of weight per day (Av)” value (1 mg/kg IP (Group 6), Baseline) was 100.00%, the “Percent change of weight per day (individual animal)” value (1 mg/kg IP (Group 6), Baseline) was 100% and the “Δ clinical score untreated -treated, Avg. Delta” value (1 mg/kg IP (Group 6), Baseline) was 0.00 points. For the same molecule, the “Clinical score of treated leg (Avg.)” value (1 mg/kg IP (Group 6), Day 3) was 0.00 points, the “Paw thickness Avg. Delta untreated -treated” value (1 mg/kg IP (Group 6), Day 3) was 0.00 mm and the “Percent change of weight per day (Av)” value (1 mg/kg IP (Group 6), Day 3) was 95.60** percent. For the same molecule, the “Percent change of weight per day (individual animal)” value (1 mg/kg IP (Group 6), Day 3) was 94.97% and 94.09% and 95.07% and 96.31% and 96.24% and 96.41% and 96.1165%, the “Δ clinical score untreated -treated, Avg. Delta” value (1 mg/kg IP (Group 6), Day 3) was 0.00 points and the “Clinical score of treated leg (Avg.)” value (1 mg/kg IP (Group 6), Day 4) was 0.00 points. For the same molecule, the “Paw thickness Avg. Delta untreated -treated” value (1 mg/kg IP (Group 6), Day 4) was −0.01 mm, the “Percent change of weight per day (Av)” value (1 mg/kg IP (Group 6), Day 4) was 96.59% and the “Percent change of weight per day (individual animal)” value (1 mg/kg IP (Group 6), Day 4) was 96.48% and 95.5665% and 97.04% and 96.31% and 96.71% and 97.4359% and 96.6%. The “Δ clinical score untreated -treated, Avg. Delta” value (1 mg/kg IP (Group 6), Day 4) was 0.00 points, the “Clinical score of treated leg (Avg.)” value (1 mg/kg IP (Group 6), Day 5) was 0.00 points and the “Paw thickness Avg. Delta untreated -treated” value (1 mg/kg IP (Group 6), Day 5) was 0.01 mm. For the same molecule, the “Percent change of weight per day (Av)” value (1 mg/kg IP (Group 6), Day 5) was 88.34%, the “Percent change of weight per day (individual animal)” value (1 mg/kg IP (Group 6), Day 5) was 88.44% and 86.2069% and 91.63% and 86.18% and 86.85% and 89.74% and 89.32% and the “Δ clinical score untreated -treated, Avg. Delta” value (1 mg/kg IP (Group 6), Day 5) was 0.00 points. The “Clinical score of treated leg (Avg.)” value (1 mg/kg IP (Group 6), Day 6) was 0.00* points and the “Paw thickness Avg. Delta untreated -treated” value (1 mg/kg IP (Group 6), Day 6) was −0.05 mm.
